Measurements published in ChEMBL document CHEMBL4043113, “A novel antihypertension agent, sargachromenol D from marine brown algae, Sargassum siliquastrum, exerts dual action as an L-type Ca2+ channel blocker and endothelin A/B2 receptor antagonist” (Bioorg Med Chem, 2017).
The source made the active and inactive calls. No cut-off for these calls is given here.

Key:
Oryctolagus cuniculus = species on record: Oryctolagus cuniculus; test: (§1) Antagonist activity at New Zealand rabbit endothelin A/B2 receptor assessed as dilation of endothelin-1 induced basilary artery contraction measured after 20 mins
[1] = Antagonist activity at New Zealand rabbit L-type calcium channel assessed as dilation of K+-depolarization induced basilary artery contraction measured after 20 mins; set-up: species or system Oryctolagus cuniculus
[2] = as §1; set-up: species or system Oryctolagus cuniculus

Activity (Oryctolagus cuniculus) | EC50 [1] [nM] | EC50 [2] [nM] | Structure (SMILES)
inactive | – | – | CC(=O)CC/C=C(\C)CCC/C(C)=C\C(=O)CC(C)C
inactive | – | – | CC(=O)CC/C=C(\C)CCC/C(C)=C/C(=O)CC(C)C
– | 520 | – | COCCOC(=O)C1=C(C)NC(C)=C(C(=O)OC(C)C)C1c1cccc([N+](=O)[O-])c1 (stereo unspecified) [NIMODIPINE]
– | – | 530 | COc1ccccc1Oc1c(NS(=O)(=O)c2ccc(C(C)(C)C)cc2)nc(-c2ncccn2)nc1OCCO [BOSENTAN]
inactive | 3520 | – | C/C(=C\CCC(C)O)CCC/C(C)=C/C(=O)CC(C)C (stereo unspecified)
